Assay results: patent publication US8455475B2 (Gruenenthal GmbH, priority 2009, dated 2013)

How the values were obtained:
[1] = biological target: T1, human B1R (bradykinin receptor 1) (Homo sapiens, UniProt P46663); test: FLIPR Ca2+ assay (Fluo-4) on CHO K1 cells stably transfected with the human B1R gene (hB1R cells): % inhibition at 10 μM / IC50, agonist Lys-Des-Arg9-bradykinin; format: cell-based; conditions: for inhibition at 10 µM: CHO-K1, human B1R
T1 construct: expressed in transfected cells; host or cells: CHO K1 cells
T1 sequence (P46663 1-353): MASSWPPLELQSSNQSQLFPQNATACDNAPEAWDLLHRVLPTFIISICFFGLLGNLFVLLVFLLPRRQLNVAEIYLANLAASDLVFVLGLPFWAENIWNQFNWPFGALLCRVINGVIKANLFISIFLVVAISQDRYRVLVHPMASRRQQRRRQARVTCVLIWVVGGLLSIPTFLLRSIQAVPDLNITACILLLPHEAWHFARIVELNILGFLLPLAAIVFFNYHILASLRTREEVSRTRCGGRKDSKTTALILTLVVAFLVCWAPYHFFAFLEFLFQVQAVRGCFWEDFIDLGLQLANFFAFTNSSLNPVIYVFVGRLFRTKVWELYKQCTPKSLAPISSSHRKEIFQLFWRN
How it was run: (§1)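 Antagonism is measured as the drop in peak Fluo-4 Ca2+ signal when the EC80 agonist follows 10–20 min compound exposure. The single-point screen uses 10 μM; IC50 uses several concentrations. Values are given as % of maximal achievable inhibition.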

[2] = biological target: T2, rat B1R (bradykinin receptor 1) (Rattus norvegicus, UniProt P97583); test: FLIPR Ca2+ assay (Fluo-4) on CHO K1 cells stably transfected with the B1R gene of the rat (rB1R cells): % inhibition at 10 μM / IC50, agonist Des-Arg9-bradykinin; format: cell-based; conditions: for inhibition at 10 µM: CHO-K1, rat B1R
T2 construct: expressed in transfected cells; host or cells: CHO K1 cells
T2 sequence (P97583 1-337): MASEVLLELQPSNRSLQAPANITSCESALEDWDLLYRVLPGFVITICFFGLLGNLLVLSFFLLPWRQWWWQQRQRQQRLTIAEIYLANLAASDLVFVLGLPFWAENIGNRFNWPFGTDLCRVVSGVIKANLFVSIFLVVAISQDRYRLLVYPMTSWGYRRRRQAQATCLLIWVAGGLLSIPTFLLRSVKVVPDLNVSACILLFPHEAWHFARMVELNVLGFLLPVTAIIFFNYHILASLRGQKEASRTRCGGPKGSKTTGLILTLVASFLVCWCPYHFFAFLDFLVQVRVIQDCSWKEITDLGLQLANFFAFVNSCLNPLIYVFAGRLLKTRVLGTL
How it was run: as §1

SMILES	inhibition at 10 µM [1]	inhibition at 10 µM [2]	% Inhibition (human B1R) at 10 μM [1]	% Inhibition (rat B1R) at 10 μM [2]
O=C(NC1CCc2ccc(C(=O)N3CCC4(CC3)CCN(c3ccncc3)C4)cc21)c1c(Cl)cccc1Cl (stereo not drawn) [IND_CC-270, 2,6-Dichloro-N-[6-(2-pyridin-4-yl-2,8-diazaspiro[4.5]decane-8-carbonyl)-2,3-dihydro-1H-inden-1-yl]-benzamide]	100%	108%	–	–
O=C(NC1CCc2ccc(C(=O)N3CCC4(CC3)CCN(c3ccncc3)C4)cc21)c1cc(Cl)ccc1C(F)(F)F (stereo not drawn) [IND_CC-303, 5-Chloro-N-[6-(2-pyridin-4-yl-2,8-diazaspiro[4.5]decane-8-carbonyl)-2,3-dihydro-1H-inden-1-yl]-2-(trifluoromethyl)-benzamide]	92%	106%	–	–
CN(C(=O)c1ccccc1Cl)C1CCc2ccc(C(=O)N3CCC4(CCN(c5ccncc5)CC4)C3)cc21 (stereo not drawn) [Example H-49, 2-chloro-N-methyl-N-[6-(8-pyridin-4-yl-3,8-diazaspiro[4.5]decane-3-carbonyl)-2,3-dihydro-1H-inden-1-yl]-benzamide]	–	–	99%	100%
O=C(NC1CCc2ccc(C(=O)N3CCC4(CC3)CCN(c3ccc(C(F)(F)F)cc3)CC4)cc21)c1c(F)cccc1Cl (stereo not drawn) [IND_CC-278, 2-Chloro-6-fluoro-N-[6-[9-[4-(trifluoromethyl)-phenyl]-3,9-diazaspiro[5.5]undecane-3-carbonyl]-2,3-dihydro-1H-inden-1-yl]-benzamide]	35%	101%	–	–
O=C(c1ccc2c(c1)C(N(C(=O)c1ccccc1Cl)C1CC1)CC2)N1CCC2(CC1)CCN(c1ccncc1)C2 (stereo not drawn) [Ind_CC-119, 2-chloro-N-cyclopropyl-N-[6-(2-pyridin-4-yl-2,8-diazaspiro[4.5]decane-8-carbonyl)-2,3-dihydro-1H-inden-1-yl]-benzamide]	99%	104%	–	–
O=C(N[C@H]1CCc2cc(C(=O)N3CCC4(CC3)CCN(c3ccncc3)CC4)ccc21)c1ccccc1Cl [Example H-156, 2-Chloro-N-[(1S)-5-(9-pyridin-4-yl-3,9-diazaspiro[5.5]undecane-3-carbonyl)-2,3-dihydro-1H-inden-1-yl]-benzamide]	24%	75%	–	–
O=C(NC1CCc2ccc(C(=O)N3CCC4(CC3)CCN(c3ccncc3)CC4)cc21)c1ccccc1Cl (stereo not drawn) [Example H-02, 2-chloro-N-[6-(3-pyridin-4-yl-3,9-diazaspiro[5.5]undecane-9-carbonyl)-2,3-dihydro-1H-inden-1-yl]-benzamide]	–	–	100%	100%
CN(C(=O)c1ccccc1Cl)C1CCc2ccc(C(=O)N3CCC4(CC3)CCN(c3ccncc3)CC4)cc21 (stereo not drawn) [Ind_CC-106, 2-chloro-N-methyl-N-[6-(9-pyridin-4-yl-3,9-diazaspiro[5.5]undecane-3-carbonyl)-2,3-dihydro-1H-inden-1-yl]-benzamide]	100%	100%	–	–
CN(C)C1(c2ccc(F)cc2)CCC2(CCN(C(=O)c3ccc4c(c3)C(N(C(=O)c3ccccc3Cl)C3CC3)CC4)CC2)CC1 (stereo not drawn) [Ind_CC-117, 2-chloro-N-cyclopropyl-N-[6-[9-dimethylamino-9-(4-fluorophenyl)-3-azaspiro[5.5]undecane-3-carbonyl]-2,3-dihydro-1H-inden-1-yl]-benzamide]	56%	77%	–	–
O=C(N[C@@H]1CCc2ccc(C(=O)N3CCC4(CCN(c5ccncc5)CC4)C3)cc21)c1ccccc1F [Example H-101, 2-Fluoro-N-[(1R)-6-(8-pyridin-4-yl-3,8-diazaspiro[4.5]decane-3-carbonyl)-2,3-dihydro-1H-inden-1-yl]-benzamide]	97%	107%	–	–
COc1cc(C)c(S(=O)(=O)N[C@@H]2CCCc3ccc(C(=O)N4CCC5(CCN(c6ccncc6)CC5)C4)cc32)c(C)c1 [Example H-16, 4-methoxy-2,6-dimehtyl-N-[(1R)-7-(8-pyridin-4-yl-3,8-diazaspiro[4.5]decane-3-carbonyl)-1,2,3,4-tetrahydro-naphthalen-1-yl]-benzenesulfonic acid amide]	100%	102%	–	–
O=C(NCc1ccccc1Cl)NC1CCc2ccc(C(=O)N3CCC4(CC3)CCN(c3ccncc3)CC4)cc21 (stereo not drawn) [Ind_CC-012, 1-[(2-chlorophenyl)-methyl]-3-[6-(9-pyridin-4-yl-3,9-diazaspiro[5.5]undecane-3-carbonyl)-2,3-dihydro-1H-inden-1-yl]-urea]	100%	100%	–	–
CC1(C)Cc2ccc(C(=O)N3CCC4(CC3)CCN(c3ccncc3)CC4)cc2C1NC(=O)c1c(Cl)cccc1C(F)(F)F (stereo not drawn) [IND_CC-206, 2-Chloro-N-[2,2-dimethyl-6-(9-pyridin-4-yl-3,9-diazaspiro[5.5]undecane-3-carbonyl)-1,3-dihydro-inden-1-yl]-6-(trifluoromethyl)-benzamide]	100%	103%	–	–
COc1cc(C)c(S(=O)(=O)N[C@H]2CCCc3ccc(C(=O)N4CCC5(CCN(c6ccncc6)CC5)C4)cc32)c(C)c1 [Example H-18, 4-methoxy-2,6-dimethyl-N-[(1S)-7-(8-pyridin-4-yl-3,8-diazaspiro[4.5]decane-3-carbonyl)-1,2,3,4-tetrahydro-naphthalen-1-yl]-benzenesulfonic acid amide]	96%	104%	–	–
Cc1ccccc1C(=O)N[C@@H]1CCc2ccc(C(=O)N3CCC4(CCN(c5ccncc5)CC4)C3)cc21 [Example H-53, 2-Methyl-N-[(1R)-6-(8-pyridin-4-yl-3,8-diazaspiro[4.5]decane-3-carobnyl)-2,3-dihydro-1H-inden-1-yl]-benzamide]	100%	104%	–	–
